# Literature values in US8476259B2, “Fasudil in combination therapies for the treatment of pulmonary arterial hypertension” (Asahi Kasei Pharma Corporation, priority 2005, dated 2013).
# Where two headings read alike, the source gives them in different places.
# What was measured:
# [1] = system: monocrotaline-induced PH in rats; details: for pulmonary arterial lesions: intravenous or oral treatment
# chronic hypoxic mice = details: for development of chronic hypoxia-induced PH: intravenous or oral treatment
# [2] = system: patients with severe pulmonary hypertension; details: intravenous
# [3] = system: pulmonary hypertension in rats; details: for pulmonary vasodilation: spontaneous PH in fawn-hooded rats
# chronically hypoxic rats = details: for high pulmonary arterial pressure: intravenous or oral treatment
# [4] = system: progressive pulmonary arterial hypertension; details: two experimental models
# Rho-kinase [5] = details: read-out: K(i) value for Rho-kinase
# [6] = system: patients with pulmonary hypertension; details: aerosolization
# Rho-kinase [7] = details: administered to rats
# PAH = details: oral
# [8] = system: rat models of systemic hypertension; details: oral
# [9] = in vivo
# patients with severe PAH = details: versus placebo
# [10] = system: spontaneously hypertensive rats; details: rat, in vivo
# rats injected with IL-6 = details: simultaneous treatment
# [11] = system: patients with Raynaud's phenomenon and systemic sclerosis; details: human, in vivo
# [12] = system: patients with angiographically proven stable angina
# [13] = inhaled, monocrotaline-induced PH, chronically hypoxic rats
# [14] = all 20 patients, 100 mg 3 times a day, 2 weeks
# [15] = subgroup (n=8) with well-developed collaterals
smiles,measurement,setting,value
COc1ccccc1Oc1c(NS(=O)(=O)c2ccc(C(C)(C)C)cc2)nc(-c2ncccn2)nc1OCCO [bosentan],liver toxicity,higher dose,liver toxicity occurred with the higher dose
same,six minute walk test,"whole group, greater improvement at higher doses",improved
"O=S(=O)(c1cccc2cnccc12)N1CCCNCC1 [fasudil, 1-(5-isoquinolinesulfonyl)-homopiperazine]",pulmonary arterial lesions,[1],reduces pulmonary arterial lesions
same,development of chronic hypoxia-induced PH,chronic hypoxic mice,attenuates
same,pulmonary vascular resistance,[2],significantly reduced
same,side effects,[2],without side effects
same,mean pulmonary arterial pressure,"[3]; inhaled fasudil, monocrotaline-induced PH, spontaneous PH, chronically hypoxic rats",selective mean pulmonary arterial pressure reductions
same,pulmonary vasodilation,[3]; [13],sustained and selective pulmonary vasodilation
same,high pulmonary arterial pressure,chronically hypoxic rats,nearly normalizes
Cc1ccc(NC(=O)c2ccc(CN3CCN(C)CC3)cc2)cc1Nc1nccc(-c2cccnc2)n1 [Gleevec],"lung vascular remodeling, pulmonary hypertension and right heart hypertrophy",[4],virtually complete reversal
"Cc1cncc2cccc(S(=O)(=O)N3CCCNC[C@@H]3C)c12 [H-1152P, (S)-(+)-2-methyl-1-[(4-methyl-5-isoquinoline)sulfonyl]-homopiperazine]",Ki,Rho-kinase [5],1.6 nM
CCCCC[C@H](O)/C=C/[C@@H]1[C@H]2C/C(=C/CCCC(=O)O)O[C@H]2C[C@H]1O [prostacyclin],duration of effects,[6],15 min
same,inhibitory effect on Rho-kinase,Rho-kinase [7],lack the inhibitory effect on Rho-kinase
CC#CCC(C)[C@H](O)/C=C/[C@@H]1[C@H]2c3cccc(CCCC(=O)O)c3O[C@H]2C[C@H]1O (mixture of isomers) [beraprost],benefit in PAH over time,PAH,benefit in a study in PAH at 3 and 6 months but not at 9 or 12 months
same,inhibitory effect on Rho-kinase,Rho-kinase [7],lack the inhibitory effect on Rho-kinase
C[C@@H](N)[C@H]1CC[C@H](C(=O)Nc2ccncc2)CC1 [Y-27632],pulmonary arterial lesions,[1],reduces pulmonary arterial lesions
same,development of chronic hypoxia-induced PH,chronic hypoxic mice,attenuates
same,mean pulmonary arterial pressure,[3]; 5 minutes of inhaled Y-27632,decreased mean pulmonary arterial pressure without reducing mean systemic arterial pressure
same,duration of hypotensive effect on hypoxic pulmonary hypertension,[3]; inhaled,at least 5 hrs
same,pulmonary vasodilation,[3]; [13],sustained and selective pulmonary vasodilation
same,hypotensive effect,[8]; normotensive rats,smaller transient effect
same,hypotensive effect,[8]; rat models of systemic hypertension,potent hypotensive effects
same,"elevated pulmonary artery pressure, acute effect",chronically hypoxic rats; intravenous,nearly normalized the elevated pulmonary artery pressure
same,high pulmonary arterial pressure,chronically hypoxic rats,nearly normalizes
Cc1cc2c(cc1CC(=O)c1sccc1S(=O)(=O)Nc1onc(C)c1Cl)OCO2 [sitaxsentan],decrease in pulmonary vascular resistance,[9],30%
same,six minute walk test,[9],improvement
CC#CCC(C)[C@H](O)/C=C/[C@@H]1[C@H]2C/C(=C/CCCC(=O)O)C[C@H]2C[C@H]1O (some centres unmarked) [iloprost],exercise capacity,patients with severe PAH,improved exercise capacity
CCCc1nn(C)c2c(=O)[nH]c(-c3cc(S(=O)(=O)N4CCN(C)CC4)ccc3OCC)nc12 [sildenafil],survival rate,[1]; PH induced by monocrotaline injection,improves survival rate
same,right ventricular hypertrophy,chronic hypoxic mice; chronic hypoxic mice,reduces right ventricular hypertrophy
same,pulmonary arterial pressure,"chronically hypoxic rats; sildenafil, chronic hypoxic rats",reduces
"COc1cccc(CCc2ccccc2OCC(CN(C)C)OC(=O)CCC(=O)O)c1 (centres unmarked) [sarpogrelate, (φ-amino-alkoxy)phenyl-ethylethylbenzene]",systolic blood pressure or heart weight,[10],no effect
same,"pulmonary vascular remodeling, right side heart failure and mortality",[1]; immediately following monocrotaline injection,suppressed the severe pulmonary vascular remodeling and right side heart failure and reduced mortality
same,reversal of established pulmonary hypertension,[1]; late treatment,failed to reverse established pulmonary hypertension
same,number of proliferating cell nuclear antigen-positive cells,"[1]; rat, in vivo",reduced
same,severity of pulmonary hypertension (medial thickness of small pulmonary arteries and right ventricle/left ventricle and septum ratio),"[1]; rat, in vivo",reduced
same,thickening of the alveolar walls and interstitial inflammatory cell infiltration,"[1]; rat, in vivo",reduced
same,IL-6-induced increase in medial thickness of small pulmonary arteries and right ventricular hypertrophy,rats injected with IL-6,prevented
same,respiratory failure and mean pulmonary arterial pressure,[11],significantly decreased
same,SAS score,[12]; [14],significantly increased
same,exercise time to the onset of 0.1-mV ST depression,[12]; [14],prolonged
same,all parameters,[12]; patients (n=12) without well-developed collaterals,not significantly changed
same,SAS score,[12]; [15],6.2±1.3 METS
same,increase of double product at the onset of 0.1-mV ST depression,[12]; [15],15%
same,time to the onset of 0.1-mV ST depression,[12]; [15],295 ± 127 s
